Measurements from doi:10.1101/2023.01.01.522448v1 (biorxiv, 2023).

Test system: PrASNase (glutaminase-free recombinant L-asparaginase)
Assay: Nesslerization
Format: biochemical, Metapseudomonas resinovorans
Conditions: pH 8.6, 37°C; 500 nM enzyme; 2-20 mM substrate

Structure (SMILES): NC(=O)C[C@H](N)C(=O)O [L-asparagine]
- Km: 9.49 mM
